Data from patent US4283539A, “Isoquinoline acetic acids” (Pfizer Inc., priority 1979, dated 1981).
Counter-ions that a name gives are not always drawn.

Molecular target: T1, aldose reductase (Bos taurus, UniProt P16116)
T1 construct: partially purified aldose reductase enzyme obtained from calf lens; from tissue; host or cells: calf lens
Assay: Inhibition of aldose reductase enzyme activity (procedure of U.S. Pat. No. 3,821,383, based on Hayman et al.)
Assay type: biochemical
Conditions: partially purified aldose reductase from calf lens; for inhibition at 100 µM: 10^-4 M; for inhibition at 10 µM: 10^-5 M
Text: The activity of the compounds of this invention as aldose reductase inhibitors and as agents for the treatment of diabetic cataracts may be determined by standard pharmacological tests. Such tests include, for example, measuring their ability to inhibit the enzyme activity of isolated aldose reductase, following the general procedure described in U.S. Pat. No. 3,821,383 and based on the procedure of Hayman et al., J. Biol. Chem. 240, 877 (1965). Based on the activity of the compounds of this invention in this test, it is expected that the compounds will also show activity as aldose reductase inhibitors when tested at suitable concentrations in other standard pharmaceutical tests, for example those measuring their ability to reduce or inhibit sorbitol accumulation in the sciatic nerve of acutely streptozotocinized (i.e. diabetic) rats; measuring their ability to reverse already-elevated sorbitol level in the sciatic nerve and lens of chronic streptozotocin-induced diabetic rats; measuring their ability to prevent or inhibit galacticol formation in the lens of acutely galatosemic rats; and measuring their ability to delay cataract formation and reduce the severity of lens opacities in chronic galactosemic rats.
The compounds produced in Examples 4, 7, 8, 9 and 10 were tested for their ability to reduce or inhibit aldose reductase enzyme activity, following the procedure described in U.S. Pat. No. 3,821,383 and based on the procedure of Hayman et. al., Journal of Biological Chemistry, 240, 877 (1965). The substrate employed was partially purified aldose reductase enzyme obtained from calf lens. The results obtained with each compound at a concentration of 10^-4 M and 10^-5 M are expressed as percent inhibition of enzyme activity.

Structure (SMILES) | inhibition at 100 µM [%] | inhibition at 10 µM [%]
Cc1nc(N(C)Cc2ccc(Cl)cc2)c2ccccc2c1CC(=O)O [Example 10, 1-(N-4-Chlorobenzyl-N-methyl-amino)-3-methyl-4-isoquinoline Acetic Acid Hydrochloride] | 99 | 97
Cc1nc(OCc2ccc(Cl)c(Cl)c2)c2ccccc2c1CC(=O)O [Example 8, 1-(3,4-Dichlorobenzyloxy)-3-methyl-4-isoquinoline Acetic Acid] | 83 | 95
Cc1nc(Oc2ccc(Cl)cc2)c2ccccc2c1CC(=O)O [Example 9, 1-(4-Chlorophenoxy)-3-methyl-4-isoquinoline Acetic Acid] | 95 | 91

Next, values leading:

inhibition at 100 µM [%] | inhibition at 10 µM [%] | Structure (SMILES)
90 | 77 | Cc1c(CC(=O)O)c2ccccc2c(=O)n1OCc1ccc(Cl)c(Cl)c1 [Example 4, 2-(3,4-Dichlorobenzyloxy)-1,2-dihydro-3-methyl-1-oxo-4-isoquinoline Acetic Acid]
27 |  | Cc1c(CC(=O)O)c2ccccc2c(=O)n1Cc1ccc(Cl)c(Cl)c1 [Example 7, 2-(3,4-Dichlorobenzyl)-1,2-dihydro-3-methyl-1-oxo-4-isoquinoline Acetic Acid]
